Data published in patent US6866861B1, “Method and composition for enhancing milk component concentrations” (Land O'Lakes, Inc., priority 1999, dated 2005).

Experiments:
cows [1] = assay: Oral feeding of sorbitol (not ruminally protected) to cows versus control group (Example 7); format: in vivo, cow
Protocol: To determine the weight percent total solids, wet basis, in a sample, the actual weight of total solids is determined by analyzing the sample in accordance with Method #925.23 (33.2.09) of Official Methods of Analysis, Association of Official Analytical Chemists (AOAC) (16th Ed., 1995). The weight percent total solids, wet basis, is then calculated by dividing the actual weight of total solids by the actual weight of the sample. The weight percent of true protein, wet basis, for a particular sample is calculated after first determining the wet basis weight percent of total Kjeldahl nitrogen and the wet basis weight percent of non-protein nitrogen in the sample. The wet basis weight percent of total Kjeldahl nitrogen in the sample is determined using the method referenced above. The wet basis weight percent of non-protein nitrogen (NPN) in the sample is determined in accordance with Method #991.21 (33.2.12) of Official Methods of Analysis, Association of Official Analytical Chemists (AOAC) (16th Ed., 1995). The weight percent of true protein, wet basis, in the sample is then determined by subtracting the wet basis weight percent of non-protein nitrogen in the sample from the wet basis weight percent of total Kjeldahl nitrogen in the sample. To determine the weight percent lactose, wet basis, in a liquid sample, the weight of the liquid sample is first determined. The actual weight of lactose in the liquid sample may then be determined using analysis kit number 176-303, that is available from Boehringer-Mannheim of Indianapolis, Ind. in accordance with the procedural instructions included with analysis kit number 176-303. The weight percent lactose, wet basis, in the liquid sample is then calculated by dividing the actual weight of lactose in the liquid sample by the actual weight of the liquid sample. To determine the weight percent fat, wet basis, in a sample, the actual weight of fat in the sample is determined in accordance with Method #974.09 (33.7.18) of Official Methods of Analysis, Association of Official Analytical Chemists (AOAC) (16th Ed., 1995). The weight percent fat, wet basis, is then calculated by dividing the actual weight of fat in the sample by the actual weight of the sample. In this example, ten cows were orally fed 100 grams per cow per day of sorbitol along with their other daily rations during a test period of four weeks, while ten different cows of a control group were orally fed the same daily rations as the ten cows, with the exception that the ten cows of this control group were not given any sorbitol. The milk of the cows in the control group and the milk of the cows given sorbitol was sampled twice per week during the four week test period. Therefore, the values presented in Table 6 below for the various milk components for the control group and for the cows fed sorbitol represent averages of eight milk samples during the test period. The probability value, P, that is presented in Table 6 for each of the different milk components is a measure of statistical probability that the differing values between the control cattle and the cattle fed sorbitol, for each respective milk component, can be explained by the difference between the control group not being fed sorbitol and the test group that was fed sorbitol. A P value of 0.10 means that 10 times out of 100 the results can be explained by factors other than the feeding or withholding of sorbitol. […]

cows [2] = assay: Abomasal infusion of sorbitol in cows, milk component concentrations (Example 2); format: in vivo, cow; settings: for Ash / Fat / Lactose / Total Solids / True Protein: 100 g/cow/day abomasal, average of 3 cows
Protocol: To determine the weight percent total solids, wet basis, in a sample, the actual weight of total solids is determined by analyzing the sample in accordance with Method #925.23 (33.2.09) of Official Methods of Analysis, Association of Official Analytical Chemists (AOAC) (16th Ed., 1995). The weight percent total solids, wet basis, is then calculated by dividing the actual weight of total solids by the actual weight of the sample. The weight percent of true protein, wet basis, for a particular sample is calculated after first determining the wet basis weight percent of total Kjeldahl nitrogen and the wet basis weight percent of non-protein nitrogen in the sample. The wet basis weight percent of total Kjeldahl nitrogen in the sample is determined using the method referenced above. The wet basis weight percent of non-protein nitrogen (NPN) in the sample is determined in accordance with Method #991.21 (33.2.12) of Official Methods of Analysis, Association of Official Analytical Chemists (AOAC) (16th Ed., 1995). The weight percent of true protein, wet basis, in the sample is then determined by subtracting the wet basis weight percent of non-protein nitrogen in the sample from the wet basis weight percent of total Kjeldahl nitrogen in the sample. To determine the weight percent lactose, wet basis, in a liquid sample, the weight of the liquid sample is first determined. The actual weight of lactose in the liquid sample may then be determined using analysis kit number 176-303, that is available from Boehringer-Mannheim of Indianapolis, Ind. in accordance with the procedural instructions included with analysis kit number 176-303. The weight percent lactose, wet basis, in the liquid sample is then calculated by dividing the actual weight of lactose in the liquid sample by the actual weight of the liquid sample. To determine the weight percent fat, wet basis, in a sample, the actual weight of fat in the sample is determined in accordance with Method #974.09 (33.7.18) of Official Methods of Analysis, Association of Official Analytical Chemists (AOAC) (16th Ed., 1995). The weight percent fat, wet basis, is then calculated by dividing the actual weight of fat in the sample by the actual weight of the sample. In this example, sorbitol was abomasally infused into three different cows at a rate of 100 grams of sorbitol per cow per day during a 14 day test period. The sorbitol rations were mixed with water to facilitate infusion. The rations provided to the cows during the period extending from day 0, prior to abomasal infusion of sorbitol, through day 14 of the test period were the same. The only difference in feeding of the cows between day 0 and days 1-14 of the test period were that during days 1-14 the cows were abomasally infused with the dosage of 100 grams of sorbitol per cow per day. Milk from the three cows was collected and analyzed prior to infusion (on day 0) and also was collected and analyzed on the third, seventh and fourteenth day of the test period. The results presented in Table 2 below for each milk component for each particular day are averages for the milk collected from the three different cows. The net change for the different milk components presented in Table 2 was calculated by averaging the results of days 3, 7 and 14 for a particular milk component and subtracting the results presented for day 0 for the particular milk component.

[3] = milk, oral 100 gr/day, four weeks, 10 cows, average of eight samples
[4] = milk, average of days 3, 7, 14 minus day 0

OC[C@@H](O)[C@@H](O)[C@H](O)[C@@H](O)CO [sorbitol]
Fat (cows [1]; [3]): 4.02 Wt %
Lactose (cows [1]; [3]): 4.81 Wt. %
Total Solids (cows [1]; [3]): 12.11 Wt. %
True Protein (cows [1]; [3]): 2.76 Wt. %
weight percent of milk components versus control group (conclusion in words) (cows [1]; oral feeding, not ruminally protected): no statistically significant increase
weight percent of fat, true protein, and total solids in the milk (conclusion in words) (cows [2]; abomasal infusion, 14 day test period): net increase
Ash (cows [2]; milk, Day 3): 0.73 Wt. %
Fat (cows [2]; milk, Day 3): 4.59 Wt %
Lactose (cows [2]; milk, Day 3): 4.62 Wt. %
Total Solids (cows [2]; milk, Day 3): 13.00 Wt. %
True Protein (cows [2]; milk, Day 3): 3.06 Wt. %
Ash (cows [2]; milk, Day 7): 0.73 Wt. %
Fat (cows [2]; milk, Day 7): 3.78 Wt %
Lactose (cows [2]; milk, Day 7): 4.87 Wt. %
Total Solids (cows [2]; milk, Day 7): 12.40 Wt. %
True Protein (cows [2]; milk, Day 7): 3.01 Wt. %
Ash (cows [2]; milk, Day 14): 0.71 Wt. %
Fat (cows [2]; milk, Day 14): 4.33 Wt %
Lactose (cows [2]; milk, Day 14): 4.75 Wt. %
Total Solids (cows [2]; milk, Day 14): 12.88 Wt. %
True Protein (cows [2]; milk, Day 14): 3.09 Wt. %
Ash, Net Change (cows [2]; [4]): no net change
Fat, Net Change (cows [2]; [4]): +0.67 Wt %
Lactose, Net Change (cows [2]; [4]): −0.13 Wt. %
Total Solids, Net Change (cows [2]; [4]): +0.63 Wt. %
True Protein, Net Change (cows [2]; [4]): +0.08 Wt. %
